Source: paper PMC4685510, “A Cell Biologist’s Field Guide to Aurora Kinase Inhibitors” (Frontiers in Oncology, 2015)

What was measured:
Assay in all cases: biochemical
Format in all cases: biochemical
[1] = biological target: 363 human kinases (including Aurora A/B/C) (Homo sapiens, UniProt P49761); settings: CLK3, [ATP] 10 µM; for remaining activity at 0.1 µM: 100 nM; for remaining activity at 0.1 µM / remaining activity at 0.5 µM: read-out: % Enzyme Activity (relative to DMSO controls)
Description: (§1) However, the Aurora A/B selectivity ratios derived from our in vitro and in vivo data can be compared to prioritize inhibitors.

[2] = biological target: T1, 363 human kinases (including Aurora A/B/C) (Homo sapiens, UniProt Q05513); settings: PKCzeta; for remaining activity at 0.1 µM: 100 nM; for remaining activity at 0.1 µM / remaining activity at 0.5 µM: read-out: % Enzyme Activity (relative to DMSO controls)
T1 sequence (Q05513 1-592): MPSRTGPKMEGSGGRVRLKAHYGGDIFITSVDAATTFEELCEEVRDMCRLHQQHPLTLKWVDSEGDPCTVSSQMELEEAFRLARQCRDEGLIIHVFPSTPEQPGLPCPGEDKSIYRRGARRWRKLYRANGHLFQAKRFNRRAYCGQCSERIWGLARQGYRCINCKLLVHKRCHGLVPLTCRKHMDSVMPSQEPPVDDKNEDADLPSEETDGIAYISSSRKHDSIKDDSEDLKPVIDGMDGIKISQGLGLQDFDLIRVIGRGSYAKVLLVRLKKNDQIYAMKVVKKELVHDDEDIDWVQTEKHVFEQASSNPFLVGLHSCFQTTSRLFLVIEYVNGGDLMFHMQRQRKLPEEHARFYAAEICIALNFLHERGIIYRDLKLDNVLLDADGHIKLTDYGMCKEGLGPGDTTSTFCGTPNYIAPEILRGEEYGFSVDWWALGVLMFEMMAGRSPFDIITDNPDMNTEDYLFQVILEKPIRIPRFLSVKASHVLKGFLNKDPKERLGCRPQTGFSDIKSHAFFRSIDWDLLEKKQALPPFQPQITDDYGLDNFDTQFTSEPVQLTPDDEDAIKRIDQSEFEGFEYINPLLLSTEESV
Description: as §1

[3] = biological target: 363 human kinases (including Aurora A/B/C) (Homo sapiens, UniProt P17252); settings: PKCa; for remaining activity at 0.1 µM: 100 nM; for remaining activity at 0.1 µM / remaining activity at 0.5 µM: read-out: % Enzyme Activity (relative to DMSO controls)
Description: as §1

[4] = biological target: 363 human kinases (including Aurora A/B/C) (Homo sapiens, UniProt Q15746); settings: MLCK/MYLK; for remaining activity at 0.1 µM: 100 nM; for remaining activity at 0.1 µM / remaining activity at 0.5 µM: read-out: % Enzyme Activity (relative to DMSO controls)
Chain of 363 human kinases (including Aurora A/B/C) (Homo sapiens, UniProt Q15746) (Q15746 whole entry): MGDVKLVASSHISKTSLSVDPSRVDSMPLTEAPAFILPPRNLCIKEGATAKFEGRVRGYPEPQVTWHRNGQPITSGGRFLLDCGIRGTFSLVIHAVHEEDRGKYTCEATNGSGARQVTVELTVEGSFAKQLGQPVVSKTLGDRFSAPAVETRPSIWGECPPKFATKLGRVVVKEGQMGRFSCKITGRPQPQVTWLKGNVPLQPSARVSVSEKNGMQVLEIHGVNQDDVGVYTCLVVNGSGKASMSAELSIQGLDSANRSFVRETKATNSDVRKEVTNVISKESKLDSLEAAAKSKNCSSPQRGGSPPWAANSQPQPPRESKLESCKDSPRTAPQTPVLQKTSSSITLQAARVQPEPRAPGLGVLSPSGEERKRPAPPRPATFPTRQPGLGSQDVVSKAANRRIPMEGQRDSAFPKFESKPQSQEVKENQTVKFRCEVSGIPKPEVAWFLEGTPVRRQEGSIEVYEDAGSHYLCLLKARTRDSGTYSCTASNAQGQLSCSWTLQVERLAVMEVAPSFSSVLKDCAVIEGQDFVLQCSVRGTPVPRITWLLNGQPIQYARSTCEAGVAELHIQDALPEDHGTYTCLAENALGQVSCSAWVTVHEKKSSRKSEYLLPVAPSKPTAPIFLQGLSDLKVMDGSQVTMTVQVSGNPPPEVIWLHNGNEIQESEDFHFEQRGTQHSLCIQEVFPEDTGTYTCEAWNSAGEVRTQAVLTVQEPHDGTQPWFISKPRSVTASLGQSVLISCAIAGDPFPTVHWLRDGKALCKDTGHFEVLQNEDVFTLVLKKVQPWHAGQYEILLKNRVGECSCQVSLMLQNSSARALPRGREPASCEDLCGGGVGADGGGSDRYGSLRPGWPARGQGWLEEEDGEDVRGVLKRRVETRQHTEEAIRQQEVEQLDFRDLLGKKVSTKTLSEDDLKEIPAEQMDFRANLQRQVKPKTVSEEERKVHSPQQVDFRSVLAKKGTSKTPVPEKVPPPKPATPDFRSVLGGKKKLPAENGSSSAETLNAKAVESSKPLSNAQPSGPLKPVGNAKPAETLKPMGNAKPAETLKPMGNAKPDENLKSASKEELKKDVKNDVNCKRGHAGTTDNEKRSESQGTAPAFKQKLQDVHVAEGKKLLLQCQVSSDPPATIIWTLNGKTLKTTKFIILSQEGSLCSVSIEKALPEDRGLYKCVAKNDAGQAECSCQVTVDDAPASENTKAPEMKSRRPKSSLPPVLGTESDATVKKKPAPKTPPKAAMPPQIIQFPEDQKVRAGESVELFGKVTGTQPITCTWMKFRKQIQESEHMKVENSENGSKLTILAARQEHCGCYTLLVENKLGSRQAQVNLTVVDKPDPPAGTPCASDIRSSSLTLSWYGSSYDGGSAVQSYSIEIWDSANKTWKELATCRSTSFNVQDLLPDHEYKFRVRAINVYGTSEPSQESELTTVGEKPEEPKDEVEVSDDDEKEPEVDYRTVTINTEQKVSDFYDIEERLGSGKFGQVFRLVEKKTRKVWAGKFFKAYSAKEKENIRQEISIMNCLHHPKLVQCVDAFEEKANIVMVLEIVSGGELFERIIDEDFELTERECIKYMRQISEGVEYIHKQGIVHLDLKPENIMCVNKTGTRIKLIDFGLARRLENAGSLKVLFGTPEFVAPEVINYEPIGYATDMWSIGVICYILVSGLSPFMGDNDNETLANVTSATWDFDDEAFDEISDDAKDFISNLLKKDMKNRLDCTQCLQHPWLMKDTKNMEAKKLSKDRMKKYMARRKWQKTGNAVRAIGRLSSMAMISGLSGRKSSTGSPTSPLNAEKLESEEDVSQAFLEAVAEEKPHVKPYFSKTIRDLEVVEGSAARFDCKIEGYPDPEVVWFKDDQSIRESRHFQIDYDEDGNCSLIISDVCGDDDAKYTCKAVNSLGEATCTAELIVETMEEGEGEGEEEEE
Description: as §1

[5] = biological target: T2, 363 human kinases (including Aurora A/B/C) (Homo sapiens, UniProt Q12866); settings: c-MER, [ATP] 30 µM; for remaining activity at 0.1 µM: 100 nM; for remaining activity at 0.1 µM / remaining activity at 0.5 µM: read-out: % Enzyme Activity (relative to DMSO controls)
T2 sequence (Q12866 21-999): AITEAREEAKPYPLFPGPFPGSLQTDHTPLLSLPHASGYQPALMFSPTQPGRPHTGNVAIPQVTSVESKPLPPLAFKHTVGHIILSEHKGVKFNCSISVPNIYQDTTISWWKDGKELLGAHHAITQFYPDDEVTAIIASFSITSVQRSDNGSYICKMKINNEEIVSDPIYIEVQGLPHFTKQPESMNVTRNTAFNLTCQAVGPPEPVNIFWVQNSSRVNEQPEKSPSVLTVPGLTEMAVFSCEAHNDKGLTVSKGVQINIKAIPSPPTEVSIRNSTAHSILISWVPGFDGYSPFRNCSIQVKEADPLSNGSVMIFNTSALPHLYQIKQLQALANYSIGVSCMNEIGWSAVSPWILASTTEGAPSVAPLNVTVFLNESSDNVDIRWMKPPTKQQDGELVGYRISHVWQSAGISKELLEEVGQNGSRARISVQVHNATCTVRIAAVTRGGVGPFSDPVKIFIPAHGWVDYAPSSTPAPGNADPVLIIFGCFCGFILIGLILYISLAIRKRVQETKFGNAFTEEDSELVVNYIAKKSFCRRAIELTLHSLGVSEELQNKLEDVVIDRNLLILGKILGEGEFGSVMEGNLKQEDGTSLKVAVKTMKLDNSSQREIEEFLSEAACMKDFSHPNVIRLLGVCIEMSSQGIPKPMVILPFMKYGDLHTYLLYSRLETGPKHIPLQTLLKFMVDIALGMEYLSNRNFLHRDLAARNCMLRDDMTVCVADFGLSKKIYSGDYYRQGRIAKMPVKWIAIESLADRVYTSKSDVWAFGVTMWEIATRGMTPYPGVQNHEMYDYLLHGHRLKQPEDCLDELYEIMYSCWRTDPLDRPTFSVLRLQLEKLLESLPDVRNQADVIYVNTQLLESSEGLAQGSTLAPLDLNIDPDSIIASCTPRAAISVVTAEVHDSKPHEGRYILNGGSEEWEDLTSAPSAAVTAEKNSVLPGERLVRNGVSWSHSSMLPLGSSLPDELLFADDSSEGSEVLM
Description: as §1

[6] = biological target: 363 human kinases (including Aurora A/B/C) (Homo sapiens, UniProt P11309); settings: PIM1; for remaining activity at 0.1 µM: 100 nM; for remaining activity at 0.1 µM / remaining activity at 0.5 µM: read-out: % Enzyme Activity (relative to DMSO controls)
Chain of 363 human kinases (including Aurora A/B/C) (Homo sapiens, UniProt P11309) (P11309 whole entry): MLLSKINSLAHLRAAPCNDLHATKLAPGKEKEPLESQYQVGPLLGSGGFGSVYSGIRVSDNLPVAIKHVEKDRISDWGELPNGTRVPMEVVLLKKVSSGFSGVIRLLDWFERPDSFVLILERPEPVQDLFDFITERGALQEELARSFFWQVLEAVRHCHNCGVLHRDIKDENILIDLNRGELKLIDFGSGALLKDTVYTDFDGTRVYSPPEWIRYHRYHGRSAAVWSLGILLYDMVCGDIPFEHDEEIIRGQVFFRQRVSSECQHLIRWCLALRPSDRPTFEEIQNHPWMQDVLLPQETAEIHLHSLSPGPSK
Description: as §1

[7] = biological target: T3, 363 human kinases (including Aurora A/B/C) (Homo sapiens, UniProt Q96BR1); settings: SGK3/SGKL; for remaining activity at 0.1 µM: 100 nM; for remaining activity at 0.1 µM / remaining activity at 0.5 µM: read-out: % Enzyme Activity (relative to DMSO controls)
T3 sequence (Q96BR1 1-496): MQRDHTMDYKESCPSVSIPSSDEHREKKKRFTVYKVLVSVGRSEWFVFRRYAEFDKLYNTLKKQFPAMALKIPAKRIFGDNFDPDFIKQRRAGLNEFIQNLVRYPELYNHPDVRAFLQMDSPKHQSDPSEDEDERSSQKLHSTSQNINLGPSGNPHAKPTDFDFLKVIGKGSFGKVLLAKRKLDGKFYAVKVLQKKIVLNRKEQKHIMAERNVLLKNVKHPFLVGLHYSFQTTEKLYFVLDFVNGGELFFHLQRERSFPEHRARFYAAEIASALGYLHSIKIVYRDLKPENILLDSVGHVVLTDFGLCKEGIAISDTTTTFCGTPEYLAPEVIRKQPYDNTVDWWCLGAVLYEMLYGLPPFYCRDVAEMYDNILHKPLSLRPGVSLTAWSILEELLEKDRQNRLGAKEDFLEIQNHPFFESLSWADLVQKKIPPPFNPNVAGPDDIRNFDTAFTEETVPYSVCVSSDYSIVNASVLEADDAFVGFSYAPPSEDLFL
Description: as §1

[8] = biological target: 363 human kinases (including Aurora A/B/C) (Homo sapiens, UniProt O95747); settings: OSR1/OXSR1; for remaining activity at 0.1 µM: 100 nM
Chain of 363 human kinases (including Aurora A/B/C) (Homo sapiens, UniProt O95747) (O95747 whole entry): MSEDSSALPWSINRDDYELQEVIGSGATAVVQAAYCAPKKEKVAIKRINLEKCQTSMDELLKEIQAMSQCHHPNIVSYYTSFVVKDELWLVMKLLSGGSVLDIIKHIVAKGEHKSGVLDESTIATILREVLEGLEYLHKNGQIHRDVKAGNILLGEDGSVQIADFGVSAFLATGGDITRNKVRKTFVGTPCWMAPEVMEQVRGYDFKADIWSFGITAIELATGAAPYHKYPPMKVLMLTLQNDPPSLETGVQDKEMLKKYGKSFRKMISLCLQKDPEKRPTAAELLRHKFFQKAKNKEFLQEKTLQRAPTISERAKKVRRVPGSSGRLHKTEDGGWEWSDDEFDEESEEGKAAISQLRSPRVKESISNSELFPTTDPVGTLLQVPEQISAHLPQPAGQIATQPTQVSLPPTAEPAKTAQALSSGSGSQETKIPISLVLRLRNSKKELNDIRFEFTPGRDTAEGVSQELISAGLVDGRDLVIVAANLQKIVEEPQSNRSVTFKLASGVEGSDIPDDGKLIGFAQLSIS
Description: as §1

[9] = read-out: % Enzyme Activity (relative to DMSO controls)

Chain of 363 human kinases (including Aurora A/B/C) (Homo sapiens, UniProt P49761) (P49761 whole entry): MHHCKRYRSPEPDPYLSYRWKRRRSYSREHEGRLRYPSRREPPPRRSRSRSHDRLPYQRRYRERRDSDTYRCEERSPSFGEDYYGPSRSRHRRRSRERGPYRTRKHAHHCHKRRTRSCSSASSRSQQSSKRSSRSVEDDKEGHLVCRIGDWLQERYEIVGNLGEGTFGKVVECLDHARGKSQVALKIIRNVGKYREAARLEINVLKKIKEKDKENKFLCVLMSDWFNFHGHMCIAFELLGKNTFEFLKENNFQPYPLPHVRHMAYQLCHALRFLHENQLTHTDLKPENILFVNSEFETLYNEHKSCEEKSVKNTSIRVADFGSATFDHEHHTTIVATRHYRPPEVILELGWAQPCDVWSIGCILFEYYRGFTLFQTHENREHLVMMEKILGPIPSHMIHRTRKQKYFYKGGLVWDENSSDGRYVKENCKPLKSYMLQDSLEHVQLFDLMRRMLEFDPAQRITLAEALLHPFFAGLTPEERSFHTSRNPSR

Structure (SMILES)	remaining activity at 0.1 µM [1]	remaining activity at 0.5 µM ([1]; 500 nM)	remaining activity at 0.1 µM [2]	remaining activity at 0.5 µM ([2]; 500 nM)	remaining activity at 0.1 µM [3]	remaining activity at 0.5 µM ([3]; 500 nM)	remaining activity at 0.1 µM [4]	remaining activity at 0.5 µM ([4]; 500 nM)	remaining activity at 0.1 µM [5]	remaining activity at 0.5 µM ([5]; 500 nM)	remaining activity at 0.1 µM [6]	remaining activity at 0.5 µM ([6]; 500 nM)	remaining activity at 0.1 µM [7]	remaining activity at 0.5 µM ([7]; 500 nM)	remaining activity at 0.1 µM [8, 9]	further results
O=C(O)[C@]1(Cc2cccc(Nc3nccs3)n2)CC[C@@H](Oc2cccc(Cl)c2F)CC1 [MK-5108]	97.5%	71.5%	99.2%	99.2%	69.8%	33.2%	89.1%	73.5%	78.7%	46.1%	92%	83.8%	106%	105%	98.9%	
O=C(c1cccc(Cl)c1F)N1CCN(Cc2cccc(Nc3nccs3)n2)CC1 [MK-8745]		82.7%		97.1%		95.4%		90.7%		41.6%		101%		99.7%		% Enzyme Activity (relative to DMSO controls) ([1]; 500 nM): 82.30%; % Enzyme Activity (relative to DMSO controls) ([2]; 500 nM): 96.81%; % Enzyme Activity (relative to DMSO controls) ([3]; 500 nM): 92.64%; % Enzyme Activity (relative to DMSO controls) ([4]; 500 nM): 89.65%; % Enzyme Activity (relative to DMSO controls) ([5]; 500 nM): 41.19%; % Enzyme Activity (relative to DMSO controls) ([6]; 500 nM): 98.06%; % Enzyme Activity (relative to DMSO controls) ([7]; 500 nM): 98.27%; % Enzyme Activity (relative to DMSO controls) ([8]; 500 nM): 93.31%; remaining activity at 0.5 µM ([8]; 500 nM, read-out: % Enzyme Activity (relative to DMSO controls)): 93.3%
CCn1cc(-c2ccnc3[nH]c(-c4cccc(CN(C)C)c4)cc23)c(-c2ccc(NC(=O)N(C)C)cc2)n1 [GSK1070916]	83.4%		106%		99.6%		96.9%		81.6%		102%		105%		95%	
